Test system: CA-MRSA cells
Assay: Broth dilution method, growth followed at OD600
Assay type: cell-based, Staphylococcus aureus
Conditions: stock solutions 20 μg/ml penicillin G, 20 μg/ml polymer, 40 μg/ml loaded polymer; 37° C., OD600 every 2 hours
Procedure: Broth dilution method was used to characterize the inhibition of penicillin G/polymer complex against CA-MRSA cells. Penicillin G, cationic cobaltocenium polymer or penicillin G/polymer complex was dissolved in water. Concentrations of the above solutions were at 20 μg/ml for penicillin G, 20 μg/ml for cationic polymer and 40 μg/ml penicillin G loaded polymer (20 μg/ml penicillin G and 20 μg/ml polymer). Solutions without polymers were prepared as the control samples. CA-MRSA cells were grown in tryptic soy broth (TSB) medium at 37° C. overnight. All bacteria were grown to an optical density of 1 (OD600=1). Then, the cells were diluted with TSB to give a bacterial assay stock with OD600=0.04. CA-MRSA cells ([…]) were added to each well in a 96 well assay plate.

SMILES: CC1(C)S[C@@H]2[C@H](NC(=O)Cc3ccccc3)C(=O)N2[C@H]1C(=O)O [penicillin G, benzyl penicillin]
- inhibition of CA-MRSA growth (OD600): some inhibition

Reference: patent US9872917B2, “Anion-paired cationic metallocene-containing compounds and polymers as antimicrobial agents” (University of South Carolina, priority 2013, dated 2018)
